Test: Case: patient with ascending spinal cord edema after thoracic fracture and spinal cord injury, treated intravenously
Type: in vivo
Settings: spinal cord edema on MRI after laminectomy and surgical fixation, intravenous dose of 500 mg in sterile saline, within a short period
Protocol: A patient, suffers a fractured thoracic vertebrae and spinal cord injury. […] An intravenous dose of 500 mg of acetazolamide in sterile saline is administered.

Question: With `CC(=O)Nc1nnc(S(N)(=O)=O)s1` [acetazolamide] as the compound, how does the “neurological outcome (sensory and motor functions)” value read?
Answer: regains sensory and motor functions in their upper extremities

Reference: patent US20080045611A1, “Methods for the therapeutic use of a carbonic anhydrase inhibitor for reducing spinal cord edema” (priority 2006, published 2008)
